Values belong to the compound of their own block, whether it stands above or below them. Calls of active or inactive are those of the source.
Assays:
[1] = target: T1, High affinity choline transporter 1 (Homo sapiens, UniProt Q9GZV3); experiment: human choline transporter blockers, potency – cell-based, 10-point CRC, membrane potential dye, dose response (AID 588401); type: functional;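 note: membrane potential dye fluorescence of choline-evoked depolarization via CHT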
T1 sequence (Q9GZV3 whole entry): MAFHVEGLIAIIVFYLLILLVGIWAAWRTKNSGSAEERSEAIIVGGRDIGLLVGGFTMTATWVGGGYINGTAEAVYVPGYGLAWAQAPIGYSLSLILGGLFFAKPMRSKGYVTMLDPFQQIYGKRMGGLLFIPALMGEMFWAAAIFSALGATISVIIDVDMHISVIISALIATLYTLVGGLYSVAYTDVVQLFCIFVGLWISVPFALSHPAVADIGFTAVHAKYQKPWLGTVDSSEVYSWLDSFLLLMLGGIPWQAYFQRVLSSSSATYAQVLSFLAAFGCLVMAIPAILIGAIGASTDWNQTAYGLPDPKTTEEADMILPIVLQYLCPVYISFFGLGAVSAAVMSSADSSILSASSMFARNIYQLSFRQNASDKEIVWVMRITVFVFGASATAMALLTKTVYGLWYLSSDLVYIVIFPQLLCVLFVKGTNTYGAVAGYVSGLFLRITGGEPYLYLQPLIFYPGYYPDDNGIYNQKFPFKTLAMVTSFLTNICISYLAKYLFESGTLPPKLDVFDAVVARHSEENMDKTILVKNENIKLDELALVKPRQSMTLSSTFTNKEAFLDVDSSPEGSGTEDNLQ

[2] = target: T1, High affinity choline transporter 1; experiment: human choline transporter blockers, potency – cell-based, 5-point CRC, membrane potential dye, dose response (AID 504840); type: functional
[3] = target: Melanin-concentrating hormone receptor 1 (Homo sapiens, UniProt Q99705); experiment: Late-stage fluorescence-based counterscreen for antagonists of the G-protein coupled receptor 7 (GPR7): cell-based dose response assay to identify antagonists of the melanin-concentrating hormone receptor 1 (MCHR1) Set 5.; type: functional
[4] = target: T2, Neuropeptides B/W receptor type 1 (Homo sapiens, UniProt P48145); experiment: human NPBW1 receptor blockade, IC50 – cell-based, fluorescence, dose response, set 5, late-stage follow-up (AID 588566); type: functional
T2 sequence (P48145 whole entry): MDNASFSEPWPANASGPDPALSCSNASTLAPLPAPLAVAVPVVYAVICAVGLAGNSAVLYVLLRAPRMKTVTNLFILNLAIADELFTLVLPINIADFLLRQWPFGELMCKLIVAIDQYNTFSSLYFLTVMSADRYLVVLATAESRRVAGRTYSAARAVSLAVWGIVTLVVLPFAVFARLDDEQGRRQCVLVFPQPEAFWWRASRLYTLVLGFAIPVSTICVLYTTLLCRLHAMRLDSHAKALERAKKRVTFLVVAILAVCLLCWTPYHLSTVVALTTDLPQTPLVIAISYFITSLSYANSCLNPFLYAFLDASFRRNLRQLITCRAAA

[5] = cells; type: functional, cell-based; conditions: HEK-CNG
[6] = target: T3, Galanin receptor type 3 (Homo sapiens, UniProt O60755); experiment: Fluorescence-based cell-based primary high throughput dose response assay to identify antagonists of the Galanin Receptor 3 (GalR3).; type: functional
T3 sequence (O60755 whole entry): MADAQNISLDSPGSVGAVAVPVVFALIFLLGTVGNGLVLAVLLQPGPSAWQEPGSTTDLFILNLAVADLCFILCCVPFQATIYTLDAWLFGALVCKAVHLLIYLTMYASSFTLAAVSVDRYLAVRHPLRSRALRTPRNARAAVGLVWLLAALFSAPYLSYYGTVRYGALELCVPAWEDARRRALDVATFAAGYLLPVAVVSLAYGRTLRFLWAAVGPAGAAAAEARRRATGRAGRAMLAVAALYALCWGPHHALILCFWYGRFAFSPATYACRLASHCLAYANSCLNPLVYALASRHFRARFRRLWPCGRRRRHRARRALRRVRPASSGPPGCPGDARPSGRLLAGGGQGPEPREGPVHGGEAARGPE

[7] = target: Ras and Rab interactor 1/Tyrosine-protein kinase ABL1 (Homo sapiens, UniProt P00519+Q13671); type: functional;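 note: biochemical TR-FRET dose-response test measuring inhibition of binding between Rin1 and Abl proteins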
[8] = target: T4, Apoptotic protease-activating factor 1 (Homo sapiens, UniProt O14727); experiment: SAR analysis of small molecule Activators of Apaf-1 in a Fluorescent assay.; type: functional; conditions: read-out: EC50_Mean;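 note: caspase-3 cleavage of fluorogenic Rh110 DEVD substrate downstream of apoptosome activation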
T4 sequence (O14727 whole entry): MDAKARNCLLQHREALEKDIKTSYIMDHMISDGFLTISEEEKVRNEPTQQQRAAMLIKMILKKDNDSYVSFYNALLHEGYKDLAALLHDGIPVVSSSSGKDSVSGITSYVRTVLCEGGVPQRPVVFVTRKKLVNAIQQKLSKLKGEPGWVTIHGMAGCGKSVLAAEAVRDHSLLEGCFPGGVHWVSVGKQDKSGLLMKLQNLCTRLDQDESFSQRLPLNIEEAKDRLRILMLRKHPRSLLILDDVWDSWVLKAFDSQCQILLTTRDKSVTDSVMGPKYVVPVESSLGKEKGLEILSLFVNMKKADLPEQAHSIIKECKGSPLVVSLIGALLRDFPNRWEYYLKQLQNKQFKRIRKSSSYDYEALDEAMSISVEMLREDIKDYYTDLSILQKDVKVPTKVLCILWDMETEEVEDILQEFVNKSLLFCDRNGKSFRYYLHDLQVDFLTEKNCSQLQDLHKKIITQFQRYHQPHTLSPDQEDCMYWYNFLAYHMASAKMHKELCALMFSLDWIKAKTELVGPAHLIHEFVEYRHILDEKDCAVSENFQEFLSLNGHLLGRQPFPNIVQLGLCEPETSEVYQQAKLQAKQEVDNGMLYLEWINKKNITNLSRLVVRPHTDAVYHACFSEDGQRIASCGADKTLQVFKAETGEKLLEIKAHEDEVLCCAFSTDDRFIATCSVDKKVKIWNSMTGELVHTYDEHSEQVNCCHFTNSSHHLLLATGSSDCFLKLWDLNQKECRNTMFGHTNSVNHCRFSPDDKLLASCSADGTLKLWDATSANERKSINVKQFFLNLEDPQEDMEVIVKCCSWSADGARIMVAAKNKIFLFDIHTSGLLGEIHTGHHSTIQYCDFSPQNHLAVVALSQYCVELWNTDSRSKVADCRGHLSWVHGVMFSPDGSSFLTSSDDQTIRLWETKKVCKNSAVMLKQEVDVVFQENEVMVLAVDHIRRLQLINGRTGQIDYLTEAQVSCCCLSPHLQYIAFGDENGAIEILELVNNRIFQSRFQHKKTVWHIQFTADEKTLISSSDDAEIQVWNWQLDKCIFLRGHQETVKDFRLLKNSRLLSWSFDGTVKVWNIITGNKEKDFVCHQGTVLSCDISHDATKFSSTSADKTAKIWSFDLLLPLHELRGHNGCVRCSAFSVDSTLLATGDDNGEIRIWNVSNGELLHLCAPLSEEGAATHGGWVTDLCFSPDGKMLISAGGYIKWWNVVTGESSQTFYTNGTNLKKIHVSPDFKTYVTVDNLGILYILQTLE

Melanin-concentrating hormone receptor 1, sequence (Q99705 whole entry): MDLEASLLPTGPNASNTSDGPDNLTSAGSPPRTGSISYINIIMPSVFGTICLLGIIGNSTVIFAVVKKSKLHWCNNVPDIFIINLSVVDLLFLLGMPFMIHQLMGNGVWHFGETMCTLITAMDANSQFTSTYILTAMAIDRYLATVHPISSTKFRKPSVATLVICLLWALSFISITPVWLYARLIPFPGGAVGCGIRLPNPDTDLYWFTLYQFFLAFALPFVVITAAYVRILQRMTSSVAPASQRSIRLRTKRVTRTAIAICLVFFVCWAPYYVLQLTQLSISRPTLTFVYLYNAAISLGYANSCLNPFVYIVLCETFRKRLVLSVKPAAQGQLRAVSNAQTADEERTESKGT
Ras and Rab interactor 1/Tyrosine-protein kinase ABL1, sequence (P00519 whole entry): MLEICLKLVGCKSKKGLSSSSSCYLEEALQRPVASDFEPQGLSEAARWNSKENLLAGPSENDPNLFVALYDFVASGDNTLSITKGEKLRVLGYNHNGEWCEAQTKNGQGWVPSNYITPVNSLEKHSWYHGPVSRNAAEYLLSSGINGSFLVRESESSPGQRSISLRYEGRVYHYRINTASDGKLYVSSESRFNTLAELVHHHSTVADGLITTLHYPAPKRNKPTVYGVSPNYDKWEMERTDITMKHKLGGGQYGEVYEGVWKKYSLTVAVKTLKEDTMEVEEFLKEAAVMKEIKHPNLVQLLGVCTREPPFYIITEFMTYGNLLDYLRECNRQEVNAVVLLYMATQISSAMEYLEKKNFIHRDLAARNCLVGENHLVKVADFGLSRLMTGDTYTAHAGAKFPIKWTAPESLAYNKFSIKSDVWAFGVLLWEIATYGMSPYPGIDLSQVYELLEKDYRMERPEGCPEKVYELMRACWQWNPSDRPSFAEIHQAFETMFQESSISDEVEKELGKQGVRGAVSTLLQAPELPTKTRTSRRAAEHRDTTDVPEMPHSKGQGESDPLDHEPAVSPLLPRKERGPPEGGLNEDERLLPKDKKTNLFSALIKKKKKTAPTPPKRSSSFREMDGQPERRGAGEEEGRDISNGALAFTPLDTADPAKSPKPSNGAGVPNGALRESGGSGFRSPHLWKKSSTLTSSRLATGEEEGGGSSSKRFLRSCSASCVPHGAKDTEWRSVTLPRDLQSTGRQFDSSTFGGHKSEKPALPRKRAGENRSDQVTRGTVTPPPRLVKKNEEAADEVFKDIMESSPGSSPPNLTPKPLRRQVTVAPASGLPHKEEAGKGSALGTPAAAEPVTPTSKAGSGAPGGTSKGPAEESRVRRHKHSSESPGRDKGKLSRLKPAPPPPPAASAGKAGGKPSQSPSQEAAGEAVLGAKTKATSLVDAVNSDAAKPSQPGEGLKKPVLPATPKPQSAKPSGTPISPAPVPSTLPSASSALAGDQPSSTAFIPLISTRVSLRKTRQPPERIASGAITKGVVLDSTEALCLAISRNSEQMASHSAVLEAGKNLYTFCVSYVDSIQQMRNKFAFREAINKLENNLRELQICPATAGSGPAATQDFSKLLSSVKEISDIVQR
Ras and Rab interactor 1/Tyrosine-protein kinase ABL1, sequence (Q13671 whole entry): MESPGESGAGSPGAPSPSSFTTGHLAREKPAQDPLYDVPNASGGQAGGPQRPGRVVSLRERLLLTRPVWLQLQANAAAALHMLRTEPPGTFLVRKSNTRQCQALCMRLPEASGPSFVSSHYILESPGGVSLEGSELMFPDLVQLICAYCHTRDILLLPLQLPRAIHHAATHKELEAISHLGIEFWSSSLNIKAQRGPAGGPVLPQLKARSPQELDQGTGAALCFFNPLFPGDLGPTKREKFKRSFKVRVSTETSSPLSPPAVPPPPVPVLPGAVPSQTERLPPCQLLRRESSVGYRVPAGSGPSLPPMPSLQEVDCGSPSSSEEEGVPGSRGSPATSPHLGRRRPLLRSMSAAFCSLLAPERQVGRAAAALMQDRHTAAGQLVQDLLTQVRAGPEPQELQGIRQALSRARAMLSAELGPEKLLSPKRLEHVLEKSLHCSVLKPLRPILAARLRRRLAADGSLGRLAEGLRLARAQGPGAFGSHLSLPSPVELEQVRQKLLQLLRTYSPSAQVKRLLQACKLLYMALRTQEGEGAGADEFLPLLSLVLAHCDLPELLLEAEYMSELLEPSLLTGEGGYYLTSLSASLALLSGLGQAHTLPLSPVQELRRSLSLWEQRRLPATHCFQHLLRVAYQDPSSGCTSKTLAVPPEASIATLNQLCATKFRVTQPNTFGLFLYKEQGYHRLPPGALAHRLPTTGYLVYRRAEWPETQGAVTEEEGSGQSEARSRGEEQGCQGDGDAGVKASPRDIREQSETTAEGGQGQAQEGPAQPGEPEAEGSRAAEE

- IC50 [1]: 1.5 µM (active)
- IC50 [2]: 3.67 µM (active)
Compound: Cc1cc(C)c(NC(=O)c2ccc[n+](Cc3ccc([N+](=O)[O-])cc3)c2)c(C)c1

- IC50 [3]: > 20 µM (inactive)
- IC50 [4]: > 20 µM (inactive)
Compound: O=C(C1CCCCN1Cc1c2ccccc2cc2ccccc12)N1CCN(c2ccc([N+](=O)[O-])cc2)CC1 (stereo not given)

Compound: COc1ccc(C2=NN(c3nc(C(=O)O)cs3)C(O)(C(F)(F)F)C2)c(OC)c1 (stereo not given)
- IC50 [1]: 4.74 µM (active)
- EC50 [5]: > 29.9 µM (inactive)
- IC50 [2]: 7.18 µM (active)
- IC50 [6]: 10 µM (inactive)

- IC50 [7]: 3.98 µM (active)
Compound: CC(OC(=O)c1ccccc1NCCO)C(=O)Nc1ccnn1C(C)C (stereo not given)

- EC50 [8]: > 100 µM (inactive)
Compound: O=C(O)CC(CCc1ccccc1)NC(=O)c1ccco1 (stereo not given)
